Test results: BindingDB's records for doi:10.1016/j.bmcl.2014.08.029 (Rhône-Poulenc Rorer, 2014)

Experiment: Antagonist activity at CRTh2 receptor in human whole blood assessed as inhibition of PGD2-induced eosinophil shape change preincubated for 10 mins with PGD2 addition measured after 4 mins by forward scatter and side scatter analysis
Compound CCN(Cc1cc(C(F)(F)F)ccc1-n1cc(CC(=O)O)c2cccnc21)C(=O)C1CC1 has an IC50 of 34 nM.
In the case of CCN(Cc1cc(C(F)(F)F)ccc1-c1nn(CC(=O)O)c2cccc(Cl)c12)C(=O)C1CC1, the IC50 is reported as 160 nM.
CCN(Cc1cc(C(F)(F)F)ccc1-c1nn(CC(=O)O)c2cccc(F)c12)C(=O)C1CC1 gave an IC50 of 23 nM.
For CCN(Cc1cc(C(F)(F)F)ccc1-c1nn(CC(=O)O)c2cccc(OC)c12)C(=O)C1CC1, the IC50 was 27 nM.
Compound CCN(Cc1cc(C(F)(F)F)ccc1-c1nn(CC(=O)O)c2cccc(C)c12)C(=O)C1CC1 has an IC50 of 108 nM.
Compound CCN(Cc1cc(C(F)(F)F)ccc1-c1nn(CC(=O)O)c2cccc(C#N)c12)C(=O)C1CC1 has an IC50 of 103 nM.
Work on CCN(Cc1cc(C(F)(F)F)ccc1-c1nn(CC(=O)O)c2ccc(Cl)cc12)C(=O)C1CC1 yielded an IC50 of 23 nM.
Compound CCN(Cc1cc(C(F)(F)F)ccc1-c1nn(CC(=O)O)c2ccc(C)cc12)C(=O)C1CC1 has an IC50 of 13 nM.
CCN(Cc1cc(C(F)(F)F)ccc1-c1nn(CC(=O)O)c2ccc(F)cc12)C(=O)C1CC1 gave an IC50 of 34 nM.
CCN(Cc1cc(C(F)(F)F)ccc1-c1nn(CC(=O)O)c2ccc(Cl)c(F)c12)C(=O)C1CC1 gave an IC50 of 18 nM.
Compound CCN(Cc1cc(C(F)(F)F)ccc1-c1nn(CC(=O)O)c2ccc(F)c(Cl)c12)C(=O)C1CC1 has an IC50 of 71 nM.
CCN(Cc1cc(C(F)(F)F)ccc1-n1cc(CC(=O)O)c2ccc(C)nc21)C(=O)C1CC1 gave an IC50 of 7.8 nM.
For CCN(Cc1cc(C(F)(F)F)ccc1-n1cc(CC(=O)O)c2ccc(C(F)F)nc21)C(=O)C1CC1, the IC50 was 8 nM.
CCN(Cc1cc(F)ccc1-n1cc(CC(=O)O)c2cccnc21)C(=O)C1CC1 gave an IC50 of 11 nM.
In the case of CCN(Cc1cc(F)ccc1-n1cc(CC(=O)O)c2ccc(C)nc21)C(=O)C1CC1, the IC50 is reported as 6.4 nM.
Work on CCN(Cc1ccccc1-n1cc(CC(=O)O)c2ccc(C)nc21)C(=O)C1CC1 yielded an IC50 of 9.5 nM.
With CCN(Cc1cc(Cl)ccc1-n1cc(CC(=O)O)c2ccc(C)nc21)C(=O)C1CC1 the IC50 was 18 nM.
Work on CCN(Cc1cc(C)ccc1-n1cc(CC(=O)O)c2ccc(C)nc21)C(=O)C1CC1 yielded an IC50 of 13 nM.
CCN(Cc1cc(OC(F)(F)F)ccc1-n1cc(CC(=O)O)c2ccc(C)nc21)C(=O)C1CC1 gave an IC50 of 6.7 nM.
For CCN(Cc1cc(F)ccc1-c1cn(CC(=O)O)c2ccc(C(F)(F)F)cc12)C(=O)C1CC1, the IC50 was 17 nM.
Compound CCN(Cc1cc(C(F)(F)F)ccc1-c1cn(CC(=O)O)c2ccc(C)nc12)C(=O)C1CC1 has an IC50 of 10 nM.
In the case of CCN(Cc1cc(C(F)(F)F)ccc1-c1cn(CC(=O)O)c2ccc(C(F)(F)F)nc12)C(=O)C1CC1, the IC50 is reported as 82 nM.
For CCN(Cc1ccccc1-n1cc(CC(=O)O)c2ccc(C(F)(F)F)cc21)C(=O)C1CC1, the IC50 was 7.7 nM.
For CCN(Cc1cc(C(F)(F)F)ccc1-c1cc(CC(=O)O)n2ccc(C)nc12)C(=O)C1CC1, the IC50 was 24 nM.
Compound CCN(Cc1cc(C(F)(F)F)ccc1-c1cc(CC(=O)O)c2ccc(C)nn12)C(=O)C1CC1 has an IC50 of 7.3 nM.
Compound CCN(Cc1cc(C(F)(F)F)ccc1-n1cc(CC(=O)O)c2ccc(C)nc21)C(=O)C1CCC1 has an IC50 of 8.5 nM.
Work on CCN(Cc1cc(C(F)(F)F)ccc1-n1cc(CC(=O)O)c2ccc(C)nc21)C(=O)CC1CC1 yielded an IC50 of 29 nM.
For CCN(Cc1cc(C(F)(F)F)ccc1-n1cc(CC(=O)O)c2ccc(C)nc21)C(=O)COC, the IC50 was 5 nM.
Compound CCN(Cc1cc(C(F)(F)F)ccc1-n1cc(CC(=O)O)c2ccc(C)nc21)C(=O)Cc1ccccc1 has an IC50 of 25 nM.
For CCN(Cc1cc(C(F)(F)F)ccc1-n1cc(CC(=O)O)c2ccc(C)nc21)C(=O)NCc1ccccc1, the IC50 was 4.7 nM.
For Cc1ccc2c(CC(=O)O)cn(-c3ccc(C(F)(F)F)cc3CN(CC3CC3)C(=O)C3CC3)c2n1, the IC50 was 22 nM.
In the case of Cc1ccc2c(CC(=O)O)cn(-c3ccc(C(F)(F)F)cc3CN(CCOc3ccccc3)C(=O)C3CC3)c2n1, the IC50 is reported as 60 nM.
